Reference: patent US11447466B2, “Substituted indole compounds useful as inhibitors of TLR7/8/9” (BRISTOL-MYERS SQUIBB COMPANY, priority 2017, dated 2022)
pIC50: −log10 of the molar value.

Assays:
Assay type in all cases: cell-based
human TLR7 = target: T1, human TLR7 (Homo sapiens, UniProt Q9NYK1); assay: TLR7 inhibition reporter assay (HEK-Blue SEAP reporter, gardiquimod stimulation); settings: HEK-Blue cells overexpressing human TLR7, SEAP reporter, gardiquimod 7.5 μM, 22 hour incubation
T1 construct: host or cells: HEK-Blue cells
T1 sequence (Q9NYK1 27-1049): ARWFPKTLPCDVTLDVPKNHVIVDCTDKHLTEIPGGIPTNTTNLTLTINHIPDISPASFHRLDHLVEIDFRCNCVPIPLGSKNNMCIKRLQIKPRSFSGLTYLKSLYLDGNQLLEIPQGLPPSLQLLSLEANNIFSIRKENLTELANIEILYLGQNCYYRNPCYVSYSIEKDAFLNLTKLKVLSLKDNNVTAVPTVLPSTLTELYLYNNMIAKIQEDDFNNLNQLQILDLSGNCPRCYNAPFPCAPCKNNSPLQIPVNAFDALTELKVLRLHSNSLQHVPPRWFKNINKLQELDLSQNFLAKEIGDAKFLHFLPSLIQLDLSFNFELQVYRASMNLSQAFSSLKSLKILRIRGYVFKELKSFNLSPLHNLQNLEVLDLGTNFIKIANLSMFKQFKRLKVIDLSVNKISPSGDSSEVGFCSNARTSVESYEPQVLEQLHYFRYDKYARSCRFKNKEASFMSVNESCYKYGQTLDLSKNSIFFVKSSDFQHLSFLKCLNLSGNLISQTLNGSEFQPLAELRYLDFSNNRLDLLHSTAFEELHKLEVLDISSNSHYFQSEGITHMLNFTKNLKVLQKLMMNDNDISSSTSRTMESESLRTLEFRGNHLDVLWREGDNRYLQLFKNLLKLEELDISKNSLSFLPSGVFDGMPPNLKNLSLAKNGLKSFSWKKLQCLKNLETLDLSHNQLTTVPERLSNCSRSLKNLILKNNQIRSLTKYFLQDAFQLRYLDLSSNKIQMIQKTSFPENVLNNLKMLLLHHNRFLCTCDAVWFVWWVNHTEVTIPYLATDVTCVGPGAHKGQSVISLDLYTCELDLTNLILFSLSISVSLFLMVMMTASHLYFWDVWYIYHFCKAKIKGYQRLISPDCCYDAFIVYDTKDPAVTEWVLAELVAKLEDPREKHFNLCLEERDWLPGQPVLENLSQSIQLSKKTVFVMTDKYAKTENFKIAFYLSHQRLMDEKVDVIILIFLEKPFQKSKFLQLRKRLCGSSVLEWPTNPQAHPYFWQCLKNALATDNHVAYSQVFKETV
Method: (§1) TLR7/8/9 Inhibition Reporter Assays
(§2) HEK-Blue™-cells (Invivogen) overexpressing human TLR7, TLR8 or TLR9 receptors were used for screening inhibitors of these receptors using an inducible SEAP (secreted embryonic alkaline phosphatase) reporter gene under the control of the IFN-β minimal promoter fused to five NF-κB and AP-1-binding sites. Briefly, cells are seeded into Greiner 384 well plates (15000 cells per well for TLR7, 20,000 for TLR8 and 25,000 for TLR9) and then treated with test compounds in DMSO to yield a final dose response concentration range of 0.05 nM-50 μM. After a 30 minute compound pre-treatment at room temperature, the cells are then stimulated with a TLR7 ligand (gardiquimod at a final concentration of 7.5 μM), TLR8 ligand (R848 at a final concentration of 15.9 μM) or TLR9 ligand (ODN2006 at a final concentration of 5 nM) to activate NF-κB and AP-1 which induce the production of SEAP. After a 22 hour incubation at 37° C., 5% CO2, SEAP levels are determined with the addition of HEK-Blue™ Detection reagent (Invivogen), a cell culture medium that allows for detection of SEAP, according to manufacturer's specifications. The percent inhibition is determined as the % reduction in the HEK-Blue signal present in wells treated with agonist plus DMSO alone compared to wells treated with a known inhibitor.

human TLR8 = target: T2, human TLR8 (Homo sapiens, UniProt Q9NR97); assay: TLR8 inhibition reporter assay (HEK-Blue SEAP reporter, R848 stimulation); settings: HEK-Blue cells overexpressing human TLR8, SEAP reporter, R848 15.9 μM, 22 hour incubation
T2 construct: host or cells: HEK-Blue cells
T2 sequence (Q9NR97 27-1041): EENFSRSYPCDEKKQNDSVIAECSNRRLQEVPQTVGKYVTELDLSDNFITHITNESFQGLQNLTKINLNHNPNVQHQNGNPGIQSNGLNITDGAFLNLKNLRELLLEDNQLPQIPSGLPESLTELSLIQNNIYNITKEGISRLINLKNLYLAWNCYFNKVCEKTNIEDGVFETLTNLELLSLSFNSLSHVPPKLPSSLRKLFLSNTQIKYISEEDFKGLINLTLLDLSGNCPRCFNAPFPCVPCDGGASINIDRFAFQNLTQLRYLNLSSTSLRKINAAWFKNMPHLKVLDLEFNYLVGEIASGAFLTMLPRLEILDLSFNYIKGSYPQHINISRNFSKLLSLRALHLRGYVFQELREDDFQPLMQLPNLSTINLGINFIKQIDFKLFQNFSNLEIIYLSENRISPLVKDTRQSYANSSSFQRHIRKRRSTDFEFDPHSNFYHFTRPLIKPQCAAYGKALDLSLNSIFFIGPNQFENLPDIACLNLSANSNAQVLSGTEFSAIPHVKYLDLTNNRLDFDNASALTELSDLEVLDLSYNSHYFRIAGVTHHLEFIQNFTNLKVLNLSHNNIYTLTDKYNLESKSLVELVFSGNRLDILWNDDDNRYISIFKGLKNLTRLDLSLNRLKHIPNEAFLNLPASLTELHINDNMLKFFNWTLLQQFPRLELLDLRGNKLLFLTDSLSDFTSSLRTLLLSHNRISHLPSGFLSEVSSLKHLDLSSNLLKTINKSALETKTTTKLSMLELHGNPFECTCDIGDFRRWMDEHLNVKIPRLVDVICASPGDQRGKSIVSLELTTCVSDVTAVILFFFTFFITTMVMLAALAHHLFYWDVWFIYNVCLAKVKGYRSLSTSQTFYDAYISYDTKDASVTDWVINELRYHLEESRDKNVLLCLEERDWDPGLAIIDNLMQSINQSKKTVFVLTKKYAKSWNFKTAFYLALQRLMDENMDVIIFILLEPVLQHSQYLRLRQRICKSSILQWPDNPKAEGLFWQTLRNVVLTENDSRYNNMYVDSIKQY
Method: as §1, §2

human TLR9 = target: T3, human TLR9 (Homo sapiens, UniProt Q9NR96); assay: TLR9 inhibition reporter assay (HEK-Blue SEAP reporter, ODN2006 stimulation); settings: HEK-Blue cells overexpressing human TLR9, SEAP reporter, ODN2006 5 nM, 22 hour incubation
T3 construct: host or cells: HEK-Blue cells
T3 sequence (Q9NR96 26-1032): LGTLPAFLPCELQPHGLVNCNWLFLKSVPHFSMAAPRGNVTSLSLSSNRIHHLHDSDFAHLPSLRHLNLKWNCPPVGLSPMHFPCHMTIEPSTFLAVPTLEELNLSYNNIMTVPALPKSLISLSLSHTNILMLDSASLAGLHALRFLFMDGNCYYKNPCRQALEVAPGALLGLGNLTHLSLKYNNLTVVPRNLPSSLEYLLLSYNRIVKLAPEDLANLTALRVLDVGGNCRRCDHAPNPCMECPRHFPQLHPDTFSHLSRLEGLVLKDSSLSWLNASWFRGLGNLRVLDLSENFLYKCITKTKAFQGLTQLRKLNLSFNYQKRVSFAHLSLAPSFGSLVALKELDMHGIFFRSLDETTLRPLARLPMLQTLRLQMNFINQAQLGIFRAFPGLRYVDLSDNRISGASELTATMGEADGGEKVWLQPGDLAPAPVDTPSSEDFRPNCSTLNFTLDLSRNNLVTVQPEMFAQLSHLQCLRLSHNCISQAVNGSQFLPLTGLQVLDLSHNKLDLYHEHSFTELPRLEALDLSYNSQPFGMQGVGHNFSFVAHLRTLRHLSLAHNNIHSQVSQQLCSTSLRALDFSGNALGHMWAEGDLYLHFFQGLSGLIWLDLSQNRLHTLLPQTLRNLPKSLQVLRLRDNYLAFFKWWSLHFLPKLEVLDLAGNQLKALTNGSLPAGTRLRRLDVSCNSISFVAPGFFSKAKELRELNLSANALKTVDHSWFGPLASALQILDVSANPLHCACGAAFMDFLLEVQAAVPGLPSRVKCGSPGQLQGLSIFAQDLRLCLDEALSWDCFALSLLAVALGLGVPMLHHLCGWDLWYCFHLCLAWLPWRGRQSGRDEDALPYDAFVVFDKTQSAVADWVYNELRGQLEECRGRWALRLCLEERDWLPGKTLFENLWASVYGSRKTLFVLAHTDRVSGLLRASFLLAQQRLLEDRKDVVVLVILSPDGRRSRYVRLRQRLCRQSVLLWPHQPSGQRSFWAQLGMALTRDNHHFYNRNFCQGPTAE
Method: as §1, §2

SMILES | pIC50 (human TLR7) | pIC50 (human TLR8) | pIC50 (human TLR9)
Cc1cc(-c2[nH]c3ccc(C4CCN(CC(=O)N(C)C)CC4)cc3c2C(C)C)cn(Cc2ccccc2)c1=O [Example 164, 2-(4-(2-(1-benzyl-5-methyl-6-oxo-1,6-dihydropyridin-3-yl)-3-isopropyl-1H-indol-5-yl)piperidin-1-yl)-N,N-dimethylacetamide] | 8.15 | 7.37 | 5.59
CC(=O)N1CCC(c2ccc3[nH]c(-c4cn(C)c(=O)c(Cl)c4C)c(C(C)C)c3c2)CC1 [Example 241, 5-(5-(1-acetylpiperidin-4-yl)-3-isopropyl-1H-indol-2-yl)-3-chloro-1,4-dimethylpyridin-2(1H)-one] | 8.08 | 8.32 | 5.31
Cc1c(-c2[nH]c3ccc(C4CCN(C)CC4)cc3c2C(C)C)cn(C)c(=O)c1Cl [Example 240, 3-chloro-5-(3-isopropyl-5-(1-methylpiperidin-4-yl)-1H-indol-2-yl)-1,4-dimethylpyridin-2(1H)-one] | 9.00 | 8.43 | 5.59
Cc1c(-c2[nH]c3ccc(C4CCN(CC5CCCO5)CC4)cc3c2C(C)C)cn(C)c(=O)c1Cl (stereo not shown) [Example 250, 3-chloro-5-(3-isopropyl-5-(1-((tetrahydrofuran-2-yl)methyl)piperidin-4-yl)-1H-indol-2-yl)-1,4-dimethylpyridin-2(1H)-one] | 8.20 | 8.32 | 5.52
Cc1cc(-c2[nH]c3ccc(C4CCN(CC(=O)NC[C@@H](C)O)CC4)cc3c2C(C)C)cn(C)c1=O [Example 125, (R)-2-(4-(2-(1,5-dimethyl-6-oxo-1,6-dihydropyridin-3-yl)-3-isopropyl-1H-indol-5-yl)piperidin-1-yl)-N-(2-hydroxypropyl)acetamide] | – | 6.54 | ≤ 4.30
CCCN1CCC(c2ccc3[nH]c(-c4cc(N5CCCCC5)c(=O)n(C)c4)c(C(C)C)c3c2)CC1 [Example 173, 5-(3-isopropyl-5-(1-propylpiperidin-4-yl)-1H-indol-2-yl)-1-methyl-3-(piperidin-1-yl) pyridin-2(1H)-one] | – | 6.01 | 5.18
CC(C)c1c(-c2cc(CCC3CC3)c(=O)n(C)c2)[nH]c2ccc(C3CCNCC3)cc12 [Example 62, 3-(2-cyclopropylethyl)-5-(3-isopropyl-5-(piperidin-4-yl)-1H-indol-2-yl)-1-methylpyridin-2(1H)-one] | – | – | ≤ 4.30
Cc1cc(-c2[nH]c3ccc(C4CCN(CC(=O)NC[C@H](C)O)CC4)cc3c2C(C)C)cn(C)c1=O [Example 126, (S)-2-(4-(2-(1,5-dimethyl-6-oxo-1,6-dihydropyridin-3-yl)-3-isopropyl-1H-indol-5-yl)piperidin-1-yl)-N-(2-hydroxypropyl)acetamide] | – | 6.20 | ≤ 4.30

Compounds with a higher pIC50 (human TLR9), results first:

pIC50 (human TLR7) | pIC50 (human TLR8) | pIC50 (human TLR9) | SMILES
8.30 | 8.25 | 6.54 | COc1cc(-c2[nH]c3ccc(C4CCN(C(=O)CN(C)C)CC4)cc3c2C(C)C)cn(C)c1=O [Example 286, 5-(5-(1-(dimethylglycyl)piperidin-4-yl)-3-isopropyl-1H-indol-2-yl)-3-methoxy-1-methylpyridin-2(1H)-one]
8.52 | 8.39 | 6.06 | CC(C)c1c(-c2cc(-c3cccnc3)c(=O)n(C)c2)[nH]c2ccc(C3CCN(C)CC3)cc12 [Example 247, 5-(3-isopropyl-5-(1-methylpiperidin-4-yl)-1H-indol-2-yl)-1-methyl-[3,3′-bipyridin]-2(1H)-one]
8.72 | 8.48 | 6.75 | CCn1cc(-c2[nH]c3ccc(C4CCNCC4)cc3c2C(C)C)cc(C)c1=O [Example 15, 1-ethyl-5-(3-isopropyl-5-(piperidin-4-yl)-1H-indol-2-yl)-3-methylpyridin-2(1H)-one]
7.91 | 8.77 | 5.83 | CC(C)CN1CCC(c2ccc3[nH]c(-c4cc(-c5cncnc5)c(=O)n(C)c4)c(C(C)C)c3c2)CC1 [Example 256, 5-(5-(1-isobutylpiperidin-4-yl)-3-isopropyl-1H-indol-2-yl)-1-methyl-3-(pyrimidin-5-yl)pyridin-2(1H)-one]
